Assay results reported in paper PMC11381239, “Endocannabinoid regulation of inward rectifier potassium (Kir) channels” (Frontiers in Pharmacology, 2024).
Numbering of substitutions follows the chain as printed. Read-outs that look alike come from different tables or passages of the source.

How the values were obtained:
Test in all cases: two-electrode voltage clamp, slope conductance Gmax
Type in all cases: cell-based
Kir2.1 = biological target: T1, Kir2.1 (Homo sapiens, UniProt P63252); conditions: for Emax (%): maximal increase in Gmax, vehicle (ethanol) control in same table
T1 construct: gene KCNJ2; full-length human Kir2.1 cDNA in pcDNA3.1, RNA expressed in Xenopus laevis oocytes; homotetramer
T1 sequence (P63252 1-427): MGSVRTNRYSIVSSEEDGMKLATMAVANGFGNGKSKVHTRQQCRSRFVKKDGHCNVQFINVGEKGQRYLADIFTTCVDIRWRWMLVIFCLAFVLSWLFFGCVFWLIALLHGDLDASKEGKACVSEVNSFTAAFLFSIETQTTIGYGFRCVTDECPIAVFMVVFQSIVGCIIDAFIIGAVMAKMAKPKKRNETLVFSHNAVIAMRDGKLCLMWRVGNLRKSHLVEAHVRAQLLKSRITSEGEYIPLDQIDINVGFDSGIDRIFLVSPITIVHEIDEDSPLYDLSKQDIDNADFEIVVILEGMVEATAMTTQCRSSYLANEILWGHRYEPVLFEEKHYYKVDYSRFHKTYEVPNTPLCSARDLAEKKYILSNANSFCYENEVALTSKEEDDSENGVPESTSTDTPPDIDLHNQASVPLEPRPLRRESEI
From the text: two-electrode voltage clamp, slope conductance Gmax on Kir2.1

WT:G144S Kir2.1 = biological target: T2, WT:G144S Kir2.1 (Homo sapiens, UniProt P63252, G144S)
T2 construct: gene KCNJ2; WT Kir2.1 co-expressed 1:1 with LQT7 mutant G144S Kir2.1 in Xenopus laevis oocytes; mixed tetramers, exact subunit stoichiometry not fixed
T2 sequence (P63252 1-427): T1 sequence (P63252 1-427)
T2 sequence (P63252 1-427 G144S): T1 sequence (P63252 1-427) with G144S

Kir4.1 = biological target: T3, Kir4.1 (Rattus norvegicus, UniProt P49655)
T3 construct: gene Kcnj10; full-length rat Kir4.1 cDNA in pcDNA3.1, RNA expressed in Xenopus laevis oocytes; homotetramer
T3 sequence (P49655 1-379): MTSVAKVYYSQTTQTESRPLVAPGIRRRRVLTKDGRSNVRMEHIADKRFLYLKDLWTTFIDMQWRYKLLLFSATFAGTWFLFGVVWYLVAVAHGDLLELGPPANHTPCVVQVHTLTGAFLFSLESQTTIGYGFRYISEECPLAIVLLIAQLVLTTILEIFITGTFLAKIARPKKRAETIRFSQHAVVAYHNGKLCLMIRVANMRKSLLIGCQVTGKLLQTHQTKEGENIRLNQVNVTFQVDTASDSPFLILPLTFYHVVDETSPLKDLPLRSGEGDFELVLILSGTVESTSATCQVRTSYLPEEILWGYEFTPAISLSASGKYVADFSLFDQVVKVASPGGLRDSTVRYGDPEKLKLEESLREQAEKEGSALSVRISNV
From the text: two-electrode voltage clamp, slope conductance Gmax on Kir4.1

[1] = 89 mM KCl bath, pH 7.4, room temperature

| Compound | EC50 (Kir2.1) | also measured |
| --- | --- | --- |
| CCCCC/C=C\C/C=C\C/C=C\CCCCC(=O)NCCO [ϒLnEA] | 36.8 ± 3.8 µM |  |
| CCCCC/C=C\C/C=C\C/C=C\C/C=C\CCCC(=O)OC(CO)CO [2-AG] | 25.5 ± 1.1 µM |  |
| CC/C=C\C/C=C\C/C=C\CCCCCCCC(=O)NCCO [αLnEA] | 24.5 ± 4.2 µM |  |
| CCCCC/C=C\C/C=C\CCCCCCCC(=O)OC(CO)CO [2-LG] |  | Emax (%) (Kir2.1; [1]): 5.4 ± 0.3% |
| oxy-AEA |  | EC50 (Kir2.1; activation, 89 mM KCl bath, pH 7.4, room temperature, mode: indirect via membrane according to authors): 25.3 ± 1.1 µM |
| CCCCC/C=C\C/C=C\C/C=C\C/C=C\CCCC(=O)OCC(O)CO (stereo not drawn) [1-AG] | 20 ± 0.9 µM |  |
| CCCCCCCCCCCCCCCC(=O)OC(CO)CO [2-PG] | 12.7 ± 2 µM | EC50 (WT:G144S Kir2.1): 11.7 ± 1 µM; EC50 (Kir4.1): 12.4 ± 0.7 µM |
| CCCCCCCC/C=C\CCCCCCCC(=O)NCCO [OEA] | 9.2 ± 0.9 µM |  |
| CCCCC/C=C\C/C=C\CCCCCCCC(=O)NCCO [LEA] | 29 ± 1 µM |  |
| CCCCCCCC/C=C\CCCCCCCCCCCCCC(=O)NCCO [NEA] | 23.3 ± 2.1 µM |  |
| CCCCCC/C=C\CCCCCCCC(=O)NCCO [POEA] | 9.3 ± 0.7 µM |  |
| CCCCC/C=C\C/C=C\C/C=C\C/C=C\CCCC(=O)NCCO [AEA] |  | Emax (%) (Kir2.1; [1]): 5.3 ± 1.3% |
| CCCCC/C=C\C/C=C\C/C=C\C/C=C\CCCCCC(=O)NCCO [DEA] | 32 ± 3.9 µM |  |
| CCCCC/C=C\C/C=C\C/C=C\C/C=C\CCCC(=O)N[C@@H](CO)C(=O)O [AS] |  | Emax (%) (Kir2.1; [1]): 1.0 ± 0.1% |
| CCCCCCCCCCCCCCCCCC(=O)NCCO [SEA] | 10.2 ± 4.9 µM |  |
| CCCCCCCCCCCCCCCCCCCC(=O)NCCO [ArEA] | 12.6 ± 4.1 µM | EC50 (WT:G144S Kir2.1): 30.7 ± 3.4 µM; EC50 (Kir4.1): 4.5 ± 3.9 µM |
| CCCCC/C=C\C/C=C\C/C=C\C/C=C\CCCC(=O)NCC(=O)O [NAGly] | 27.7 ± 2.8 µM |  |
